{
  "source": "paper PMC6389962",
  "about": "(Nature Communications, 2019)",
  "key": {"[1]": {"test_system": "fasted normal mice (C57BL/6J)", "test": "Intraperitoneal glucose tolerance test (IPGTT) in fasted normal mice", "assay_type": "in vivo, mouse", "conditions": "for AUC: IPGTT 5 min (Fig 4a), blood glucose AUC 0-120 min", "description": "In a second study, an IPGTT was performed 30 min after i.v. injections of 1, 14 and the vehicle (Fig. 4b). […] A further IPGTT study was done with a glucose challenge after 2 h of the dosing to investigate the prolonged activity of hybrids 14, 22 and 23 (Fig. 4c).\nFig. 4 IPGTT studies in mice. a–d Intraperitoneal glucose tolerance test (IPGTT) at different time after dosing in fasted normal mice (C57BL/6J, male, 20–25 g). Dosage: 200 μg kg^−1 (50 nmol kg^−1) i.v. Formulation: 20 μg mL^−1 in PBS 1×. IPGTT: glucose 2 g kg^−1 i.p. at T0. a IPGTT after 5 min (n = 4). b IPGTT after 30 min (n = 6). c IPGTT after 2 h (n = 6). d IPGTT after 4 h (n = 3). Area under the curve (AUC) of the corresponding IPGTT curve. Data are mean ± SEM. […] Source data are provided as a Source Data file\nAfter the acclimation period (at least 5 days), mice (male C57BL/6J mice (Charles River laboratories) 6 weeks old, 20–25 g) were randomized into groups according to their body weight. The mice were fasted for 6 h prior being acutely treated via i.v. route (5 µg per mouse i.v. (200 μg kg^−1, 50 nmol kg^−1)) formulated at 20 µg mL^−1 in PBS 1×. The IPGTTs were performed (glucose 2 g kg^−1 i.p.) 5 min, 30 min, 2 h or 4 h after dosing and blood glucose was measured at different time points after the glucose challenge."}, "[2]": {"test_system": "normal mice (C57BL/6J)", "test": "Blood glucose study in normal fed mice", "assay_type": "in vivo, mouse", "parameters": "key to In vivo activity (indicator): + active; +++: + + + more active", "how_it_was_run": "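Fed male C57BL/6J mice (8 weeks, 20–25 g, n = 3 per group) received a single i.v. dose of 5 µg per mouse (50 nmol kg^−1) in PBS at 10 am. Blood glucose measured before dosing and at 30 min, 1, 2, 4 and 6 h after.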"}, "[3]": {"conditions": "fasted C57BL/6J mice, 200 μg kg−1 (50 nmol kg−1) i.v., glucose 2 g kg−1 i.p., n = 6"}},
  "data": [
    {"compound": "CC[C@H](C)[C@H](NC(=O)[C@H](Cc1ccccc1)NC(=O)[C@H](CCC(=O)O)NC(=O)[C@H](CCCCN)NC(=O)[C@H](C)NC(=O)[C@H](C)NC(=O)[C@H](CCC(N)=O)NC(=O)CNC(=O)[C@H](CCC(=O)O)NC(=O)[C@H](CC(C)C)NC(=O)[C@H](Cc1ccc(O)cc1)NC(=O)[C@H](CO)NC(=O)[C@H](CO)NC(=O)[C@@H](NC(=O)[C@H](CC(=O)O)NC(=O)[C@H](CO)NC(=O)[C@@H](NC(=O)[C@H](Cc1ccccc1)NC(=O)[C@@H](NC(=O)CNC(=O)[C@H](CCC(=O)O)NC(=O)CNC(=O)[C@@H](N)Cc1c[nH]cn1)[C@@H](C)O)[C@@H](C)O)C(C)C)C(=O)N[C@@H](C)C(=O)N[C@@H](Cc1c[nH]c2ccccc12)C(=O)N[C@@H](CC(C)C)C(=O)N[C@H](C(=O)N[C@@H](CCCCN)C(=O)NCC(=O)N[C@@H](CCCNC(=N)N)C(=O)NCC(N)=O)C(C)C", "note": "[compound 1, GLP-1-G^2 (GG2)]", "values": [
      {"measurement": "AUC", "setting": "[1]; mean of n = 4, 2018-03-08", "value": 21223, "unit": "mg·min/dL"},
      {"measurement": "AUC", "setting": "[1]; single animal, 1st of group", "value": 20535, "unit": "mg·min/dL"},
      {"measurement": "AUC", "setting": "[1]; single animal, 2nd of group", "value": 25208, "unit": "mg·min/dL"},
      {"measurement": "AUC", "setting": "[1]; single animal, 3rd of group", "value": 19110, "unit": "mg·min/dL"},
      {"measurement": "AUC", "setting": "[1]; single animal, 4th of group", "value": 20040, "unit": "mg·min/dL"},
      {"measurement": "activity in IPGTT 5 min after dosing", "setting": "[1]; fasted C57BL/6J mice, 200 μg kg−1 (50 nmol kg−1) i.v., glucose 2 g kg−1 i.p., n = 4", "value": "both analogues were active"},
      {"measurement": "activity in IPGTT 30 min after dosing", "setting": "[1]; [3]", "value": "already inactive"},
      {"measurement": "activity in IPGTT 2 h after dosing", "setting": "[1]; [3]", "value": "IPGTT curve similar to the vehicle"},
      {"measurement": "In vivo activity (indicator)", "setting": "[2]; mice, 50 nmol kg−1 i.v.", "value": "+"},
      {"measurement": "effect on blood glucose concentration", "setting": "[2]; normal fed C57BL/6J mice, n = 3, 5 μg per mouse (50 nmol kg−1) i.v., monitored 6 h", "value": "decreased of blood glucose concentration after 30 min"}
    ]}
  ]
}
